This is an account of results in patent publication US4193997A, “Thieno[2,3-c] and [3,2-c]pyridines, process for their preparation and therapeutic applications thereof” (Parcor, priority 1977, dated 1980).

Assay [1] deals with A.D.P.-induced blood-platelet aggregation. As to the kind of experiment: A.D.P.-induced blood-platelet aggregation after oral treatment of rats. Format: in vivo, Wistar rats. The note with it: Rattus norvegicus, 100 mg/kg oral, 3 hrs after treatment, 10 μM A.D.P. solution, read-out: Percent inhibition of blood-platelet aggregation, A.D.P. Here is the method: (§1) Blood is taken from the jugular vein of Wistar rats. From this citrated blood, and after centrifugation, a plasma containing 600,000±20,000 blood-platelets per mm 3 is reconstituted, which plasma is used in all aggregation determinations.
(§2) 0.4 ml plasma is placed in a siliconized tube provided with a magnet bar which is also siliconized. The tube is introduced into an aggregometer connected to an apparatus which records the optical density variations. When light transmission reaches a stable value, 0.5 ml of a solution containing 10 μM A.D.P. (adenosine diphosphate) is introduced into the tube.
Blood-platelet aggregation then induces an increase of light transmission, followed by a decrease subsequent to the disaggregation stage.
The maximal optical density variation thus determined characterizes the extent of the aggregation.
(§3) Different groups of 20 rats each are used. Each group is orally administered a test derivative, at a dosage of 100 mg/kg. The results obtained during both tests are reported in following Table I which indicates the percent inhibition of blood-platelet aggregation obtained with respect to the reference group, 3 hrs after treatment.

Assay [2] relates to collagen-induced blood-platelet aggregation. The experiment in a line: Collagen-induced blood-platelet aggregation after oral treatment of rats. Format: in vivo, Wistar rats. The note with it: Rattus norvegicus, 100 mg/kg oral, 3 hrs after treatment, collagen (bovine tendon extract), read-out: Percent inhibition of blood-platelet aggregation, Collagen. Here is the method: as §1, §2
The A.D.P. solution is substituted with a collagen solution (bovine tendon extract).
as §3

Assay [3] deals with Red blood cells. The experiment in a line: Anti-sludge in vitro, "curative" procedure (protamine sulfate agglomeration of red blood cells). The assay is classed as cell-based, rats. The note with it: 25 μg; for percent aggregates, size of agglomerates 4: reference tests 11; for percent aggregates, size of agglomerates 3: reference tests 15 or 16; for percent aggregates, size of agglomerates 2: reference tests 19; for percent aggregates, size of agglomerates 1: reference tests 33 (n°3, 4, 6) or 30 (n°11, 12, 17). Here is the method: (§4) Red blood cells of rats are washed three times and diluted to 1/250 concentration in physiological saline. In each of 5 tubes are placed 0.6 ml of this suspension and 0.2 ml physiological saline. Into each tube is then added, respectively, an amount of 0, 25, 50, 100 and 200 μg of the test derivative contained in 0.2 ml of solution. After incubation for one hour at 37° C., 0.2 ml of a solution containing 125 μg/ml protamine sulfate is added thereto, and the resulting material is further incubated for 0.5 hour at 37° C. The red blood cells of each tube are then examined with a Mallasez cell, and the percent free red blood cells (RBC) and the percent agglomerates formed by 2, 3, 4, 5 . . . RBC are noted.
The test was repeated according to a "curative" procedure. The red blood cells were first contacted with the protamine sulfate and, after incubation for 0.5 hour, 0.2 ml containing 25 μg of the test derivative were added thereto, after which the material was further incubated for one hour at 37° C.

Assay [4] concerns Red blood cells. As to the kind of experiment: Anti-sludge in vitro, "preventive" treatment (protamine sulfate agglomeration of red blood cells). The following applies: for percent agglomerates formed by 5 RBC: controls 6 or 8; for percent agglomerates formed by 4 RBC: controls 9 or 8; for percent agglomerates formed by 3 RBC: controls 13 or 14; for percent agglomerates formed by 2 RBC: controls 17 or 16; for percent free red blood cells (size 1): controls 32 (n°3, 4, 6) or 30 (n°11, 12, 17). Format: cell-based, rats. Here is the method: as §4

Usually inhibition stands for how much of the control response was suppressed. On to `O=C1c2ccsc2CCN1Cc1ccccc1Cl` [Derivative n°1, 4-Oxo-5-o.chlorobenzyl-4,5,6,7-tetrahydro-thieno[3,2-c]pyridine], for which the inhibition at 100 mg/kg turned out to be 60.4% in assay [1] and 90% in assay [2].
`O=C1c2ccsc2CCN1Cc1ccc(Cl)cc1` [Derivative n°3, 4-Oxo-5-p.chlorobenzyl-4,5,6,7-tetrahydro-thieno[3,2-c]pyridine]: the inhibition at 100 mg/kg in assay [1] was determined as 60.8%. Further, in the assay with Red blood cells [3], the “percent aggregates, size of agglomerates 4” value was 1%; the “percent aggregates, size of agglomerates 3” value is reported as 5%; the “percent aggregates, size of agglomerates 2” value stood at 13%; the “percent aggregates, size of agglomerates 1” value amounted to 81%. In addition, the inhibition at 100 mg/kg in assay [2] is 91.4%. Also, in the assay on Red blood cells [4] (25 μg per tube), the “percent agglomerates formed by 5 RBC” value amounted to 1%, the “percent agglomerates formed by 4 RBC” value is 2%, the “percent agglomerates formed by 3 RBC” value worked out at 10% and the “percent agglomerates formed by 2 RBC” value is reported as 24%. For the same molecule, the “percent free red blood cells (size 1)” value in the assay with Red blood cells [4] (25 μg per tube) is 63%. Further, in the assay with Red blood cells [4] (50 μg per tube), the “percent agglomerates formed by 4 RBC” value turned out to be 2%, the “percent agglomerates formed by 3 RBC” value is given as 7%, the “percent agglomerates formed by 2 RBC” value was determined as 25% and the “percent free red blood cells (size 1)” value is 66%. In addition, in the assay on Red blood cells [4] (100 μg per tube), the “percent agglomerates formed by 5 RBC” value was found to be 1%, the “percent agglomerates formed by 4 RBC” value came to 1%, the “percent agglomerates formed by 3 RBC” value is 6% and the “percent agglomerates formed by 2 RBC” value was 15%. The “percent free red blood cells (size 1)” value with Red blood cells [4] (100 μg per tube) was 77%. For the same molecule, in the assay on Red blood cells [4] (200 μg per tube), the “percent agglomerates formed by 4 RBC” value worked out at 1%, the “percent agglomerates formed by 3 RBC” value came to 1%, the “percent agglomerates formed by 2 RBC” value is 10% and the “percent free red blood cells (size 1)” value amounted to 88%.
On to `O=C1c2sccc2CCN1Cc1ccccc1Cl` [Derivative n°4, 6-o.Chlorobenzyl-7-oxo-4,5,6,7-tetrahydro-thieno[2,3-c]-pyridine], for which the inhibition at 100 mg/kg in assay [1] came out at 62.9%. Also, the “percent aggregates, size of agglomerates 5” value with Red blood cells [3] (reference tests 8 or 9) was found to be 1%. Moreover, in the assay with Red blood cells [3], the “percent aggregates, size of agglomerates 4” value is 1%; the “percent aggregates, size of agglomerates 3” value came to 3%; the “percent aggregates, size of agglomerates 2” value stood at 17%; the “percent aggregates, size of agglomerates 1” value is 78%. Besides, in assay [2], the inhibition at 100 mg/kg came out at 93.1%. In addition, in the assay on Red blood cells [4] (25 μg per tube), the “percent agglomerates formed by 5 RBC” value came out at 2%, the “percent agglomerates formed by 4 RBC” value is 3%, the “percent agglomerates formed by 3 RBC” value amounted to 7% and the “percent agglomerates formed by 2 RBC” value worked out at 20%. For the same molecule, the “percent free red blood cells (size 1)” value in the assay on Red blood cells [4] (25 μg per tube) turned out to be 68%. In addition, in the assay with Red blood cells [4] (50 μg per tube), the “percent agglomerates formed by 5 RBC” value amounted to 1%, the “percent agglomerates formed by 4 RBC” value is recorded as 2%, the “percent agglomerates formed by 3 RBC” value came to 4% and the “percent agglomerates formed by 2 RBC” value came to 22%. For the same molecule, the “percent free red blood cells (size 1)” value in the assay with Red blood cells [4] (50 μg per tube) came to 71%. In addition, in the assay on Red blood cells [4] (100 μg per tube), the “percent agglomerates formed by 4 RBC” value was 2%, the “percent agglomerates formed by 3 RBC” value turned out to be 1%, the “percent agglomerates formed by 2 RBC” value amounted to 17% and the “percent free red blood cells (size 1)” value is 80%. In the assay on Red blood cells [4] (200 μg per tube), the “percent agglomerates formed by 3 RBC” value is 1%, the “percent agglomerates formed by 2 RBC” value was 8% and the “percent free red blood cells (size 1)” value is listed as 91%.
Take `O=C(c1ccccc1Cl)N1CCc2sccc2C1=O` [Derivative n°6, 4-Oxo-5-o.chlorobenzoyl-4,5,6,7-tetrahydro-thieno[3,2-c]pyridine]: the inhibition at 100 mg/kg in assay [1] worked out at 61.7%. In the assay with Red blood cells [3], the “percent aggregates, size of agglomerates 4” value is recorded as 2%; the “percent aggregates, size of agglomerates 3” value was determined as 2%; the “percent aggregates, size of agglomerates 2” value stood at 15%; the “percent aggregates, size of agglomerates 1” value turned out to be 81%. The inhibition at 100 mg/kg in assay [2] is 91.5%. In the assay with Red blood cells [4] (25 μg per tube), the “percent agglomerates formed by 5 RBC” value is given as 4%, the “percent agglomerates formed by 4 RBC” value stood at 5%, the “percent agglomerates formed by 3 RBC” value was 4% and the “percent agglomerates formed by 2 RBC” value stood at 22%. In the assay on Red blood cells [4] (25 μg per tube), the “percent free red blood cells (size 1)” value was 65%. In the assay on Red blood cells [4] (50 μg per tube), the “percent agglomerates formed by 5 RBC” value is on record as 1%, the “percent agglomerates formed by 4 RBC” value stood at 3%, the “percent agglomerates formed by 3 RBC” value amounted to 5% and the “percent agglomerates formed by 2 RBC” value is listed as 25%. For the same molecule, the “percent free red blood cells (size 1)” value in the assay with Red blood cells [4] (50 μg per tube) is reported as 66%. Moreover, in the assay on Red blood cells [4] (100 μg per tube), the “percent agglomerates formed by 5 RBC” value turned out to be 1%, the “percent agglomerates formed by 4 RBC” value is reported as 0%, the “percent agglomerates formed by 3 RBC” value was determined as 3% and the “percent agglomerates formed by 2 RBC” value worked out at 13%. Further, the “percent free red blood cells (size 1)” value with Red blood cells [4] (100 μg per tube) was 83%. In addition, in the assay on Red blood cells [4] (200 μg per tube), the “percent agglomerates formed by 3 RBC” value is on record as 1%, the “percent agglomerates formed by 2 RBC” value is on record as 8% and the “percent free red blood cells (size 1)” value was 91%.
On to `N#Cc1ccccc1CN1CCc2sccc2C1=O` [Derivative n°8, 4-Oxo-5-o.cyanobenzyl-4,5,6,7-tetrahydro-thieno[3,2-c]pyridine], for which the inhibition at 100 mg/kg worked out at 60.8% in assay [1] and 91% in assay [2].
On the same counts, the results for `COC(=O)c1ccccc1CN1CCc2sccc2C1=O` [Derivative n°9, 4-Oxo-5-o,carbomethoxybenzyl-4,5,6,7-tetrahydro-thieno[3,2-c]-pyridine] are 61.6% and 90.8%.
As for `O=C(c1ccccc1Cl)N1CCc2ccsc2C1=O` [Derivative n°10, 6-o.Chlorobenzoyl-7-oxo-4,5,6,7-tetrahydro-thieno[2,3-c]pyridine], the inhibition at 100 mg/kg in assay [1] was found to be 60.9%; in assay [2], 92.2%.
As to `O=C(OCc1ccccc1)C1Cc2sccc2C(=O)N1Cc1ccccc1` (stereo not shown) [Derivative n°13, 4-Oxo-6-benzyloxycarbonyl-5-benzyl-4,5,6,7-tetrahydro-thieno[3,2-c]pyridine], the inhibition at 100 mg/kg was determined as 63.4% in assay [1] and 91.9% in assay [2].
On the same counts, the results for `O=C(O)C1Cc2sccc2C(=O)N1Cc1ccccc1` (stereo not shown) [Derivative n°14, 4-Oxo-6-carboxy-5-benzyl-4,5,6,7-tetrahydro-thieno[3,2-c]-pyridine] are 60.5% and 93%.
`COc1cc(CN2C(=O)c3ccsc3CC2C(=O)O)cc(OC)c1OC` (stereo not shown) [Derivative n°16, 4-Oxo-6-carboxy-5-(3,4,5-trimethoxy-benzyl)-4,5,6,7-tetrahydro-thieno[3,2-c]pyridine]: the inhibition at 100 mg/kg in assay [1] came to 62.4%; in assay [2] it was 90.5%.
`O=C1NCC(c2ccccc2)c2ccsc21` (stereo not shown) [Derivative n°18, 4-Phenyl-7-oxo-4,5,6,7-tetrahydro-thieno[2,3-c]pyridine]: the inhibition at 100 mg/kg in assay [1] was determined as 60.6%; in assay [2] it was 91.4%.
